Experiments:
[1] = Critical micellular concentration determination (Example 78); format: physicochemical; details: deionized water
Method: Stock solutions were prepared of known weight concentration (range spanning 0.005 wt %-5.000 wt %) of inventive surface-active compositions (by solution of the appropriate weight of example composition in deionized water). For reference, the surface tension of deionized water in the absence of a surface-active composition is 73 mN. […] The surface tensions of the solutions at the concentration of the CMC were also noted. Results are shown in table 10 and graphical results are depicted in FIG. 22.

[2] = Lipophilic substances solubilization test, lemongrass oil (Example 71); format: physicochemical; details: 2 mL of 5 wt % aqueous solution, stepwise addition of 2.5 μL, duplicate
Method: After each addition, the sample was agitated with a vortex mixture for 60 s and left to stand for 5 min. If no heterogenous phase was observed visually, the oil was said to be fully soluble. If a heterogenous, immiscible biphasic or emulsion was visible, then the saturation limit for that surface-active component was said to have been exceeded. Each surface-active composition was tested in duplicate.

Solution Surface tension at CMC [1]: 36 mN
CMC ([1]; from surface tension at 0.005-5.000 wt %): 0.04 wt %
Maximum volume of lemongrass oil solubilized [2]: 8.75 µL
SMILES: CCCCCCCCCCN(C(C)=O)C1OC[C@@H](O)[C@H](O)[C@H]1O (stereo partly drawn) [Example 11 composition, N-decyl N-acetyl xylosylamine]

— patent US20250101338A1, “BIOMASS DERIVED SURFACE-ACTIVE COMPOSITIONS AND PRODUCTS” (Cambridge Glycoscience Ltd, priority 2021, published 2025)
